Data published in ChEMBL document CHEMBL1201862, “PubChem BioAssay data set” (2004).
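Compound exposure: 48 hours, 5 concentrations, 96-well plates. Abbreviation: GI50, concentration required for 50% inhibition of growth.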 Active and inactive are the calls of the source. No stated cut-off is given here; in the data, active = GI50 up to about 1.1 µM and inactive = higher.

Assays:
Assay in all cases: NCI-60 cell line screen, 48 h
HCT-15 = test system: HCT-15
K562 = test system: K562
SR = test system: SR
TK-10 = test system: TK-10
M14 = test system: M14
HOP-62 = test system: HOP-62
A549 = test system: A549
OVCAR-5 = test system: OVCAR-5
IGROV-1 = test system: IGROV-1
SNB-75 = test system: SNB-75
UACC-257 = test system: UACC-257
SK-MEL-5 = test system: SK-MEL-5
SK-OV-3 = test system: SK-OV-3
MDA-MB-435 = test system: MDA-MB-435
HL-60 = test system: HL-60
HT-29 = test system: HT-29
CAKI-1 = test system: CAKI-1
OVCAR-8 = test system: OVCAR-8
SF-539 = test system: SF-539

Structure (SMILES)	GI50 (HCT-15) [µM]	GI50 (K562)	GI50 (SR)	GI50 (TK-10)	GI50 (M14)	GI50 (HOP-62)	GI50 (A549)	GI50 (OVCAR-5)	GI50 (IGROV-1)	GI50 (SNB-75)	GI50 (UACC-257)	GI50 (SK-MEL-5)	GI50 (SK-OV-3)	GI50 (MDA-MB-435)	GI50 (HL-60)	GI50 (HT-29)	GI50 (CAKI-1)	GI50 (OVCAR-8)	GI50 (SF-539)
c1ccc(-c2nnn(CCN3CCCCC3)n2)cc1	> 100	> 100 µM (inactive)	> 100 µM (inactive)	> 100 µM (inactive)	> 100 µM (inactive)	> 100 µM (inactive)	> 100 µM (inactive)	> 100 µM (inactive)	> 100 µM (inactive)	> 100 µM (inactive)	> 100 µM (inactive)	> 100 µM (inactive)	> 100 µM (inactive)	> 100 µM (inactive)	> 100 µM (inactive)	> 100 µM (inactive)	> 100 µM (inactive)	> 100 µM (inactive)	
Cn1c(CCC2(C)Cc3ccccc3C(=O)O2)cc2ccccc2c1=O (stereo not drawn)	33.7	2.96 µM (inactive)	34.4 µM (inactive)		16.4 µM (inactive)	18.5 µM (inactive)	31.2 µM (inactive)	32.8 µM (inactive)	27.3 µM (inactive)	22.4 µM (inactive)		17.2 µM (inactive)	30.5 µM (inactive)	19.4 µM (inactive)	27.2 µM (inactive)		13.9 µM (inactive)	> 100 µM (inactive)	43.1 µM (inactive)
CCc1c(N=[N+]=[N-])c2ccccc2oc1=O	> 100	> 100 µM (inactive)	> 100 µM (inactive)	> 100 µM (inactive)	> 100 µM (inactive)	> 100 µM (inactive)	> 100 µM (inactive)		49.7 µM (inactive)	69.3 µM (inactive)	> 100 µM (inactive)		> 100 µM (inactive)	> 100 µM (inactive)	> 100 µM (inactive)	> 100 µM (inactive)		> 100 µM (inactive)	> 100 µM (inactive)
CSc1c(C#N)c(N)n(-c2ccc(Cl)cc2)c(=O)c1C#N	> 100	> 100 µM (inactive)	42.8 µM (inactive)	> 100 µM (inactive)	> 100 µM (inactive)		> 100 µM (inactive)	> 100 µM (inactive)	> 100 µM (inactive)	78 µM (inactive)	> 100 µM (inactive)	> 100 µM (inactive)	> 100 µM (inactive)	> 100 µM (inactive)	46.3 µM (inactive)	> 100 µM (inactive)	> 100 µM (inactive)	67.8 µM (inactive)	> 100 µM (inactive)
CN(C(=O)Cc1ccc(Cl)c(Cl)c1)[C@@H]1CCCC[C@H]1[N+]1(C)CC=CC1	> 100	> 100 µM (inactive)	> 100 µM (inactive)	> 100 µM (inactive)	> 100 µM (inactive)	> 100 µM (inactive)	> 100 µM (inactive)	> 100 µM (inactive)	> 100 µM (inactive)		> 100 µM (inactive)	> 100 µM (inactive)	> 100 µM (inactive)	> 100 µM (inactive)	> 100 µM (inactive)	> 100 µM (inactive)	> 100 µM (inactive)	> 100 µM (inactive)	
CC12CC(c3ccccc3O1)C(C(=O)Nc1cccc(F)c1)C(=O)N2 (stereo not drawn)	42.9	35.4 µM (inactive)	38.7 µM (inactive)		90.4 µM (inactive)	> 100 µM (inactive)	52.1 µM (inactive)	> 100 µM (inactive)	40.7 µM (inactive)		40.2 µM (inactive)	22.8 µM (inactive)	> 100 µM (inactive)	38.8 µM (inactive)	30.5 µM (inactive)	55.8 µM (inactive)	92.3 µM (inactive)	24.4 µM (inactive)	> 100 µM (inactive)
C=CC(CCc1ccc(C(=O)OCC)cc1)c1c(N)nc(N)[nH]c1=O (stereo not drawn)	> 100	> 100 µM (inactive)	> 100 µM (inactive)	60.3 µM (inactive)	> 100 µM (inactive)	> 100 µM (inactive)	> 100 µM (inactive)		> 100 µM (inactive)	47.8 µM (inactive)	35.1 µM (inactive)	23.5 µM (inactive)	> 100 µM (inactive)	> 100 µM (inactive)	28.5 µM (inactive)	72.8 µM (inactive)	86.3 µM (inactive)	95.1 µM (inactive)	> 100 µM (inactive)
c1ccc2c(c1)SCCCSCCSCCCS2	> 100	> 100 µM (inactive)	> 100 µM (inactive)	> 100 µM (inactive)	> 100 µM (inactive)	> 100 µM (inactive)	> 100 µM (inactive)	> 100 µM (inactive)	> 100 µM (inactive)	> 100 µM (inactive)	> 100 µM (inactive)	> 100 µM (inactive)	> 100 µM (inactive)	> 100 µM (inactive)	39.4 µM (inactive)	> 100 µM (inactive)		> 100 µM (inactive)	> 100 µM (inactive)
CC(=O)C(C)C(=O)N1C(=O)N(C)C2(C)N(C)C(=O)NC12C (stereo not drawn)	> 100		> 100 µM (inactive)	> 100 µM (inactive)	> 100 µM (inactive)	> 100 µM (inactive)	> 100 µM (inactive)	> 100 µM (inactive)	> 100 µM (inactive)	> 100 µM (inactive)		> 100 µM (inactive)	> 100 µM (inactive)	> 100 µM (inactive)	> 100 µM (inactive)	> 100 µM (inactive)	> 100 µM (inactive)		> 100 µM (inactive)
O=C1Nc2ccccc2C1(O)Cc1ccccn1 (stereo not drawn)	> 100	> 100 µM (inactive)	> 100 µM (inactive)	> 100 µM (inactive)	> 100 µM (inactive)	> 100 µM (inactive)	> 100 µM (inactive)	> 100 µM (inactive)	> 100 µM (inactive)	43.1 µM (inactive)	> 100 µM (inactive)	> 100 µM (inactive)	> 100 µM (inactive)	> 100 µM (inactive)	> 100 µM (inactive)	> 100 µM (inactive)	> 100 µM (inactive)	> 100 µM (inactive)	
CSC(=O)c1sc(SC)[n+](-c2ccccc2)c1O	21	16.6 µM (inactive)	29.8 µM (inactive)	18.2 µM (inactive)	14.3 µM (inactive)	17 µM (inactive)	> 100 µM (inactive)	18.7 µM (inactive)	19.2 µM (inactive)	13.1 µM (inactive)		20.8 µM (inactive)	34.4 µM (inactive)	18.7 µM (inactive)	> 10 µM (inactive)	20.2 µM (inactive)		22.8 µM (inactive)	15.1 µM (inactive)
S=c1[nH]nc(Cn2c3ccc(Br)cc3c3nc4ccccc4nc32)o1	1.06	35.1 µM (inactive)	0.568 µM (active)	69.5 µM (inactive)	4.55 µM (inactive)	29.9 µM (inactive)	22.8 µM (inactive)	> 84.5 µM (inactive)	31.9 µM (inactive)	86.1 µM (inactive)	> 58.6 µM (inactive)	31.6 µM (inactive)	> 78.5 µM (inactive)	16.7 µM (inactive)		35.6 µM (inactive)	41.6 µM (inactive)	43.2 µM (inactive)	30.4 µM (inactive)
COc1ccc(NC(=O)CC(=O)N2N=C(c3ccccc3)C(/N=N/c3ccc(S(=O)(=O)CCOS(=O)(=O)O)cc3)C2=O)cc1 (stereo not drawn)	> 100	> 100 µM (inactive)	> 100 µM (inactive)	> 100 µM (inactive)	> 100 µM (inactive)	> 100 µM (inactive)	> 100 µM (inactive)		> 100 µM (inactive)	> 100 µM (inactive)	> 100 µM (inactive)	> 100 µM (inactive)	> 100 µM (inactive)	> 100 µM (inactive)	> 100 µM (inactive)	> 100 µM (inactive)	> 100 µM (inactive)	> 100 µM (inactive)	> 100 µM (inactive)
CN1CC[C@]2(c3cccc(O)c3)CC(=O)/C(=C/c3ccc(Cl)c(Cl)c3)[C@@H]1C2	1.16	0.296 µM (active)	0.281 µM (active)	1.86 µM (inactive)	1.15 µM (inactive)		1.6 µM (inactive)	1.77 µM (inactive)	1.88 µM (inactive)	0.455 µM (active)	1.49 µM (inactive)	1.55 µM (inactive)		0.337 µM (active)	0.199 µM (active)	1.01 µM (active)	1.08 µM (active)	1.49 µM (inactive)	2.5 µM (inactive)
CCCCCCCCCC(=O)NCCc1c[nH]c2ccc(OC)cc12	19.1	55 µM (inactive)	40.9 µM (inactive)	18.2 µM (inactive)	17.9 µM (inactive)	16.4 µM (inactive)	19 µM (inactive)	23.9 µM (inactive)	14.9 µM (inactive)	20.6 µM (inactive)	20.8 µM (inactive)	18.5 µM (inactive)	17.4 µM (inactive)	24.5 µM (inactive)		23.2 µM (inactive)	25.4 µM (inactive)	16.6 µM (inactive)	23.2 µM (inactive)
C=C1CCC[C@@H](C)C(O)[C@@H]2OC(=O)C(=C)[C@@H]2C[C@@H](OC(C)=O)[C@@]2(C)CC[C@@H]1O2 (stereo partly drawn)	3.78	5.5 µM (inactive)	1.75 µM (inactive)	7.96 µM (inactive)	6.97 µM (inactive)	8.09 µM (inactive)	15.8 µM (inactive)	7.87 µM (inactive)	8.15 µM (inactive)	0.91 µM (active)	8.18 µM (inactive)	6.92 µM (inactive)	10.8 µM (inactive)	7.71 µM (inactive)		8.47 µM (inactive)	6.89 µM (inactive)	7.19 µM (inactive)	7.98 µM (inactive)
